Molecules are shown by their SMILES.

The test system of one test is KU-19-19 cells. Kind of test: ATPlite luminescence assay of extracellular ATP. It is filed as cell-based, human. To be noted: pretreatment with 10 μM ruthenium red, 50 μM AV3-1. On the procedure: KU-19-19 cells (1 × 10^5 per well) were plated in 24-well plates and cultured for 24 hours. Medium was removed, and wells were washed with PBS before adding 1 mL of drugs dissolved in PBS. After 30 minutes, 100 μL of the supernatant was transferred to a 96-well plate. ATP content was measured using the ATPlite luminescence ATP assay (Revvity, catalog number 6016943) following manufacturer’s instructions. Luminescence was recorded using a Polarstar Omega reader and normalized to control wells without addition of drugs.
Fig. 4 TRPV3 activation by AV3-1 was enhanced by cholesterol supplementation and causes ATP release in KU-19-19 bladder cancer cells. […] Current amplitudes were recorded using voltage ramps from −100 mV to +100 mV (500-millisecond duration) and expressed as current density (pA/pF) measured at +100 mV and −100 mV. (C) Quantification of current densities (pA/pF) at −100 mV (inward current) and +100 mV (outward current) at the time points (1, 2) as indicated in (A, B). […] Statistical significance was determined using Kruskal-Wallis ANOVA followed by Conover test; ∗P < .05. […] Inset: Box-and-whisker plots of AV3-1 potencies under control conditions (open box) and following cholesterol supplementation (gray box), derived from individual concentration-response fits and expressed as pEC50 (-log10(EC50 [M])). […]
On the technique in general: ATP-based viability assays read luminescence as a measure of living cells.

In a further test the test system is HEK293 cells. On the set-up: method as in PMID 35916168. Particulars: >10 μM; cited from earlier work.

Turning to `N.N.N.N.N.N.N.N.N.N.N.N.N.N.[Cl-].[Cl-].[Cl-].[Cl-].[Cl-].[Cl-].[O-2].[O-2].[Ru+3].[Ru+3].[Ru+4]` [ruthenium red, reference compound], the “effect on AV3-1-evoked ATP release” value in the test with KU-19-19 cells is “reduced ATP levels”.
On to `Cc1ccc(O)c(C2CCC(C(C)C)=C2Cl)c1` (centres unmarked) [KS0365], for which the “effects on HEK293 cells at higher concentrations” value with HEK293 cells is given as “nonspecific effects”.

The values above are taken from publication PMC12881674, “Activation of TRPV3 channels in bladder cancer cells stimulates ATP release” (Molecular Pharmacology, 2025).
